According to PubChem BioAssay (NCI):
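Grown in 96-well plates, cells were treated for 48 hours with each compound at five concentrations. Insufficient inhibition: endpoint recorded as highest concentration tested. TGI is the concentration that stops growth completely.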

Tests used:
Assay in all cases: growth of human tumour cells (NCI), 48 h
[1] = system: SK-MEL-2 melanoma
[2] = system: NCI-H460 lung
[3] = system: HCT-116 colon
[4] = system: OVCAR-8 ovarian
[5] = system: MDA-MB-231 breast
[6] = system: SK-MEL-28 melanoma
[7] = system: UACC-257 melanoma
[8] = system: MOLT-4 leukemia
[9] = system: PC-3 prostate
[10] = system: NCI-H23 lung
[11] = system: SF-539 CNS
[12] = system: SF-295 CNS
[13] = system: SN12C renal
[14] = system: TK-10 renal
[15] = system: IGROV1 ovarian
[16] = system: SNB-19 CNS
[17] = system: HL-60(TB) leukemia
[18] = system: HCC-2998 colon
[19] = system: MCF7 breast
[20] = system: UACC-62 melanoma
[21] = system: M14 melanoma
[22] = system: BT-549 breast
[23] = system: MDA-N
[24] = system: U251 CNS
[25] = system: MDA-MB-435
[26] = system: EKVX NSCLC
[27] = system: DU-145 prostate
[28] = system: SW-620 colon
[29] = system: LOX IMVI melanoma
[30] = system: OVCAR-5 ovarian
[31] = system: HT29 colon
[32] = system: SR leukemia
[33] = system: K-562 leukemia
[34] = system: RXF 393 renal
[35] = system: NCI-H522 lung
[36] = system: HCT-15 colon
[37] = system: A498 renal
[38] = system: NCI-H226 lung
[39] = system: T-47D breast
[40] = system: HOP-62 NSCLC
[41] = system: HS 578T breast
[42] = system: SK-MEL-5 melanoma
[43] = system: HOP-92 NSCLC
[44] = system: NCI/ADR-RES ovarian
[45] = system: A549 NSCLC
[46] = system: SNB-75 CNS
[47] = system: CAKI-1 renal
[48] = system: SF-268 CNS
[49] = system: UO-31 renal
[50] = system: OVCAR-4 ovarian
[51] = system: 786-0 renal
[52] = system: OVCAR-3 ovarian
[53] = system: KM12 colon
[54] = system: CCRF-CEM leukemia
[55] = system: RPMI-8226 leukemia
[56] = system: COLO 205 colon
[57] = system: MALME-3M melanoma
[58] = system: ACHN renal

## O=c1ccc2ccc(CBr)cc2o1
[1]
  TGI: 26.6 µM
[2]
  TGI: 25.3 µM
[3]
  TGI: 3.74 µM
[4]
  TGI: 4.06 µM
[5]
  TGI: 4.14 µM
[6]
  TGI: 26.6 µM
[7]
  TGI: 24 µM
[8]
  TGI: 5.98 µM
[9]
  TGI: > 100 µM
[10]
  TGI: 8.91 µM
[11]
  TGI: 13.9 µM
[12]
  TGI: 28.7 µM
[13]
  TGI: 7.22 µM
[14]
  TGI: 3.37 µM
[15]
  TGI: 13.1 µM
[16]
  TGI: 24.8 µM
[17]
  TGI: 3.58 µM
[18]
  TGI: 9.53 µM
[19]
  TGI: 3.87 µM
[20]
  TGI: 23.1 µM
[21]
  TGI: 8.92 µM
[22]
  TGI: 8.99 µM
[23]
  TGI: 15.1 µM
[24]
  TGI: 3.36 µM
[25]
  TGI: 10.4 µM
[26]
  TGI: 5.94 µM
[27]
  TGI: 30.8 µM
[28]
  TGI: 3.2 µM
[29]
  TGI: 3.01 µM
[30]
  TGI: 3.29 µM
[31]
  TGI: 6.41 µM
[32]
  TGI: 5.05 µM
[33]
  TGI: 5.2 µM
[34]
  TGI: 3.47 µM
[35]
  TGI: 2.55 µM
[36]
  TGI: 3.45 µM
[37]
  TGI: 29.5 µM
[38]
  TGI: 23 µM
[39]
  TGI: 5.76 µM
[40]
  TGI: 30.6 µM
[41]
  TGI: 28.9 µM
[42]
  TGI: 8.96 µM
[43]
  TGI: 3.13 µM
[44]
  TGI: 3.73 µM
[45]
  TGI: 30.1 µM
[46]
  TGI: > 100 µM
[47]
  TGI: 2.89 µM

## Cc1cc2cc3cc(C)c(N)cc3nc2cc1N
[1]
  TGI: 10.4 µM
[48]
  TGI: 2.71 µM
[2]
  TGI: 1.21 µM
[3]
  TGI: 1.31 µM
[4]
  TGI: 2.2 µM
[5]
  TGI: 1.27 µM
[6]
  TGI: 2.94 µM
[7]
  TGI: 8.57 µM
[8]
  TGI: 0.894 µM
[9]
  TGI: 6.84 µM
[10]
  TGI: 2.24 µM
[12]
  TGI: 1.41 µM
[13]
  TGI: 1.63 µM
[49]
  TGI: 10.4 µM
[50]
  TGI: 1.49 µM
[14]
  TGI: 1.62 µM
[15]
  TGI: 1.7 µM
[16]
  TGI: 3.29 µM
[17]
  TGI: 11 µM
[19]
  TGI: 2.71 µM
[51]
  TGI: 1.75 µM
[20]
  TGI: 2.3 µM
[52]
  TGI: 1.85 µM
[53]
  TGI: 2.03 µM
[21]
  TGI: 21.9 µM
[54]
  TGI: 2.52 µM
[55]
  TGI: 1.31 µM
[22]
  TGI: > 44.5 µM
[23]
  TGI: 2.93 µM
[25]
  TGI: 11 µM
[56]
  TGI: 1.98 µM
[26]
  TGI: 1.47 µM
[27]
  TGI: 1.87 µM
[28]
  TGI: 1.6 µM
[29]
  TGI: 2.11 µM
[30]
  TGI: 2.65 µM
[31]
  TGI: 1.6 µM
[32]
  TGI: 1.44 µM
[33]
  TGI: 3.28 µM
[34]
  TGI: 2.47 µM
[35]
  TGI: 1.7 µM
[36]
  TGI: 2.2 µM
[57]
  TGI: 2.72 µM
[37]
  TGI: 1.89 µM
[38]
  TGI: 11.7 µM
[39]
  TGI: 2.43 µM
[40]
  TGI: 1.32 µM
[41]
  TGI: 10.5 µM
[42]
  TGI: 14.6 µM
[43]
  TGI: 4.89 µM
[44]
  TGI: 9.83 µM
[45]
  TGI: 2.07 µM
[58]
  TGI: 1.6 µM
[46]
  TGI: 6.9 µM
[47]
  TGI: 2.64 µM
